On the set-up of data set [1]: method as in PMID 21576646. The conditions noted are these: oral administration, phase 1 study; cited from earlier work.
The subject of data set [2] is leukemias and myelodysplastic syndromes. The arrangement: method as in PMID 23671007. The conditions noted are these: specific indications of leukemias and myelodysplastic syndromes; cited from earlier work.
A short description of data set [3]: Urinary excretion by LC-MS/MS. The conditions noted are these: geom. mean (geom. SD). The format is in vivo, human. On the procedure:
(§1) Blood specimens for PK analysis were collected on Cycle 1 Day 1 (C1D1) prior to THU administration and then at 15, 30, and 45 min and 1, 2, 3, 4, 5, and 6 h after THU administration, as well as on C1D2 and C1D3 prior to and 2 h after THU administration. Urine specimens for PK analysis were collected on C1D1 prior to treatment and then at every void from 0 to 24 h after THU administration. All specimens for PK analysis were processed and analyzed by LC-MS/MS as described previously, and Phoenix WinNonlin software was used for data analysis.

Data set [4] is described as follows: Phase 1 dose escalation: adverse events (CTCAE v4.0), DLT, MTD/RP2D. The class given is in vivo, human. The following applies: orally once daily with 160 mg FdCyd on days 1–6 and 8–13 of each 21-day cycle (dose level 8).
Protocol: FdCyd and THU were supplied by the NCI Division of Cancer Treatment and Diagnosis. Patients were administered both drugs orally in 21-day cycles, and dose escalation proceeded according to a traditional 3 + 3 design as per the dose escalation schema shown in Supplementary Table S1. […] Patients maintained a study diary to note any side effects or concurrent medications. The NCI Common Terminology Criteria for Adverse Events version 4.0 was used to grade adverse events. Tumor response was assessed by radiography at baseline and every 2 cycles thereafter and evaluated per RECIST version 1.1 [11]. Following determination of the maximum tolerated dose (MTD)/recommended phase 2 dose (RP2D), an additional 13 patients were enrolled on a RP2D expansion cohort for assessments of pharmacodynamic biomarkers in baseline and on-treatment tumor biopsies.
DLTs were defined as toxicities that were at least possibly related to FdCyd or THU within the first cycle of treatment and met one of the following criteria: grade ≥ 3 non-hematological toxicity (including grade 3 nausea, vomiting, or diarrhea only if refractory to standard supportive care; grade 3 electrolyte toxicities only if unable to be corrected to ≤ grade 1 within 24 h; and tumor pain only if refractory to analgesics); grade 4 thrombocytopenia; or grade 4 neutropenia lasting ≥ 5 days or febrile neutropenia. […]
The conditions of data set [5]: cited from earlier work.
Data set [6] can be described thus: Plasma pharmacokinetics by LC-MS/MS. The conditions noted are these: for THU AUC0-6/Dose / THU Cl/F / THU Cmax/Dose / Tmax / Vd/F / half-life / AUC(0-inf) / Cmax / AUC(0-t) / concentration at 24 h / concentration at 48 h: geom. mean (geom. SD); for Tmax: read-out: THU Tmax; for Vd/F: read-out: THU Vz/F; for half-life: read-out: THU t½ (converted); for AUC(0-inf): read-out: THU AUC0-inf; for Cmax: read-out: THU Cmax; for AUC(0-t): read-out: THU AUC0-6; for concentration at 24 h: read-out: THU Cmin24h; for concentration at 48 h: read-out: THU Cmin48h. The class given is in vivo, human. On the procedure: as §1

[7] abbreviates: DL1-DL9: THU 3000 mg oral once daily (n=44).
[8] abbreviates: DL10-DL11: THU 6000 mg oral twice daily (n=11).
Where [9] appears, read: human, plasma, oral, Total, all dose levels (n=55).
[10] abbreviates: human, plasma, po, 3000 mg, DL1-DL9: THU 3000 mg oral once daily (n=44).
The mark [11] stands for this setting: human, plasma, po, 6000 mg, DL10-DL11: THU 6000 mg oral twice daily (n=11).
[12] abbreviates: human, plasma, DL1-DL9: THU 3000 mg oral once daily (n=44).
Where [13] appears, read: human, plasma, DL10-DL11: THU 6000 mg oral twice daily (n=11).

Values joined by “and” are separate entries in the source; they are usually repeats but may differ in a detail not shown here. Identical values can stand only once. Like-named read-outs stand apart in the source and are kept apart here.

For the compound `Nc1ncn([C@@H]2O[C@H](CO)[C@@H](O)[C@H]2O)c(=O)n1` [azacytidine], the “Most common grade 3/4 toxicity and dose-limiting toxicity” value in data set [1] was “diarrhea”. Also, the Response rates in data set [2] is reported as greater than 50%.

On to `Nc1ncn([C@H]2C[C@H](O)[C@@H](CO)O2)c(=O)n1` [decitabine, 5-aza-2’deoxycytidine], for which the Response rates in data set [2] is reported as greater than 50%.

For the compound `O=C1NC(O)CCN1[C@@H]1O[C@H](CO)[C@@H](O)[C@H]1O` (stereo partly drawn) [THU, tetrahydrouridine], the “THU urinary excretion over 0-24 hours of day 1” value in data set [3] (All FdCyd doses + THU 3000 mg, N=42) is listed as 2.1 (2.0) % dose; in data set [3] (All FdCyd doses + THU 6000 mg, N=10), 1.2 (2.5) % dose; in data set [3] (DL1: FdCyd 30 mg + THU 3000 mg, N=3), 2.9 (2.0) % dose; in data set [3] (DL2: FdCyd 60 mg + THU 3000 mg, N=3), 2.8 (1.6) % dose; in data set [3] (DL3: FdCyd 90 mg + THU 3000 mg, N=3), 2.1 (1.4) % dose; in data set [3] (DL4: FdCyd 120 mg + THU 3000 mg, N=3) it was 1.1 (4.8) % dose. For the same compound, the “THU urinary excretion over 0-24 hours of day 1” value was 2.1 (1.8) % dose in data set [3] (DL5-9: FdCyd 160 mg + THU 3000 mg, N=30); 1.1 (2.9) % dose in data set [3] (DL10: FdCyd 60 mg + THU 6000 mg, N=7); 1.6 (1.7) % dose in data set [3] (DL11: FdCyd 80 mg + THU 6000 mg, N=3); 1.9 (2.1) % dose in data set [3] (Total, all dose levels, N=52). Moreover, the “Maximum tolerated dose / RP2D, THU dose” value in data set [4] turned out to be 3000 mg. For the same compound, in data set [5], the “THU bioavailability, previously established” value is 4.1%. For the same compound, the “THU clearance, previous values” in data set [5] (intravenous THU, ref previous clearance values) is recorded as 43 mL/min/m^2. For the same compound, in data set [6] (AUC0−6 P = 0.007, Cmax P = 0.005, C24h P = 0.002, C48h P = 0.004), the “THU exposure in patients who experienced a DLT vs those who did not” value is on record as “significantly higher THU exposures”. The “THU AUC0-6/Dose” value in data set [6] (setting [7]) is on record as 2.25 (1.63) µg/L•h / mg; in data set [6] (setting [8]) it was 1.79 (1.37) µg/L•h / mg; in data set [6] (Total, all dose levels (n=55)) it was 2.15 (1.60) µg/L•h / mg. The “THU Cl/F” value in data set [6] (setting [7]) was 142 L/h and 142 (1.8) L/h; in data set [6] (setting [8]), 190 (1.6) L/h; in data set [6] (Total, all dose levels (n=55)), 147 (1.7) L/h. Moreover, the “THU Cmax/Dose” value in data set [6] (setting [7]) is reported as 505 (1.7) µg/L / g; in data set [6] (setting [8]), 390 (1.4) µg/L / g; in data set [6] (Total, all dose levels (n=55)), 480 (1.6) µg/L / g. In addition, the “Increase in THU 24 and 48 h trough concentrations” value in data set [6] (THU 6000 mg twice daily vs 3000 mg once daily, expected 4-fold) is roughly 10 fold. In data set [6] (comparison with ref 8), the “THU plasma concentrations for the oral RP2D compared with the intravenous RP2D of 350 mg/m^2 THU” value is 9–13 % lower. In addition, the Tmax in data set [6] (setting [9]) is roughly 3 h; in data set [6] (setting [10]) it was 3 h; in data set [6] (setting [11]), 3.2 h. For the same compound, the Vd/F in data set [6] (setting [9]) turned out to be 1830 L; in data set [6] (setting [10]), 1810 L; in data set [6] (setting [11]), 2040 L. The half-life in data set [6] (setting [9]) is 8.7 h; in data set [6] (setting [10]) it was 8.8 h; in data set [6] (human, plasma, po, 6000 mg, DL10-DL11: THU 6000 mg oral twice daily, half-life determined for only 6 patients), 7.4 h. For the same compound, the bioavailability in data set [6] (human, plasma, oral, from previous clearance (43 mL/min/m^2) vs current Cl/F (142 L/h), read-out: THU bioavailability in the current study) was roughly 3%. For the same compound, the figures for the AUC(0-inf) in data set [6] (setting [10]) and in data set [6] (setting [11]) were 21100 ng·h/mL and 31600 ng·h/mL, respectively. Besides, the Cmax was found to be 1520 ng/mL in data set [6] (setting [10]) and 2340 ng/mL in data set [6] (setting [11]). Moreover, the values for the AUC(0-t) in data set [6] (setting [12]) and in data set [6] (setting [13]) were 6750 ng·h/mL and 10800 ng·h/mL, respectively. Further, the concentration at 24 h in data set [6] (setting [12]) was 260 ng/mL; in data set [6] (setting [13]), 2520 ng/mL. For the same compound, the concentration at 48 h in data set [6] (setting [12]) came to 330 ng/mL; in data set [6] (setting [13]), 3170 ng/mL.

In general, Tmax refers to the time at which the peak concentration occurs. As usually defined, the bioavailability is the share of a dose that reaches the circulation, judged against a reference dose that is usually intravenous. The term Cmax denotes the maximum level reached in the sampled fluid or tissue.

The values are drawn from PMC12722308, “A phase 1 study of orally administered 5-fluoro-2’-deoxycytidine with tetrahydrouridine in patients with refractory solid tumors” (Cancer Chemotherapy and Pharmacology, 2025).
